These results are taken from US10550110B2, “Tetrahydroquinoline sulfonamide derivatives as inverse agonists of retinoid-related orphan receptor gamma (ROR gamma (t))” (GALDERMA RESEARCH & DEVELOPMENT, priority 2014, dated 2020).

pIC50: −log10 of the molar value.

What is called pIC50 is the negative decadic logarithm of the IC50, by convention in mol/L. Lower therefore signals a large IC50.

The target in the test is T1, ROR gamma ligand-binding domain (LBD) (hRORg) (Homo sapiens, UniProt P51449).
T1 construct: expressed in transfected cells; host or cells: HG5LN (HeLa line with GAL4-responsive luciferase reporter)
T1 sequence (P51449 269-508 limits assumed): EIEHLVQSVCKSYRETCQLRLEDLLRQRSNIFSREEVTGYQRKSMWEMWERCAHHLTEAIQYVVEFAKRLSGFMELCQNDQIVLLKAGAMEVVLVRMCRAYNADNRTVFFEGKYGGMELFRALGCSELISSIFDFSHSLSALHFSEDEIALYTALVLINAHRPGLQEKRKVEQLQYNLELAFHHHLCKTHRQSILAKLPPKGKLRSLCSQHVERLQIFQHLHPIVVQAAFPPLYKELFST
As to the kind of experiment: GAL4-RORγ transactivation (luciferase reporter, HG5LN HeLa line). Particulars: HG5LN HeLa line with GAL4 DBD fused to ROR gamma LBD, 18 hours incubation. The format is cell-based. An excerpt: GAL4—RORγ Transactivation
The RORγ transactivation model was developed from the line HG5LN, which is a HeLa line that stably expresses a luciferase reporter gene controlled by a pentamer of the GAL4 recognition domain of yeast and of a β-globin promoter. The HG5LN line was stably transfected by the DNA-binding domain (DBD) of GAL4 fused to the ROR gamma ligand-binding domain (LBD). Molecules that inhibit the ROR gamma constitutive activity reduce the luciferase expression, thus leading to a reduction in the emitted luminescence.
The cells are seeded in 384-well plates (5000 cells in 45 μL/well of culture medium containing 10% fetal calf serum) and incubated for 4 hours at 37° C., 5% CO2. 5 μL of the test molecules (compounds described in the tables described above) are then added to each well and the plates are incubated for 18 hours at a temperature of 37° C. under 5% of CO2. 20 μL of luciferase substrate (Promega) are added to each well and the luminescence emitted is read by a microplate reader.
The luminescence units (“RLU”) are normalized by positive controls (“POS” containing a saturated concentration of N-(2,2,2-trifluoroethyl)-N-[4-[2,2,2-trifluoro-1-hydroxy-1-(trifluoromethyl)ethyl]phenyl])benzenesulfonamide and negative controls (“NEG” containing DMSO): % inhibition=((RLU-NEG)*100)/(POS-NEG). The IC50 values are calculated from a 4-parameter logistic model using the XLFit software (IDBS).
Background: In a reporter assay the amount or activity of a reporter protein is the signal.
In the case of `CCc1ccc(N(CC(C)C)S(=O)(=O)c2ccc3c(c2)C(O)CCN3C2CCN(C(=O)OC(C)(C)C)CC2)cc1` (stereo not drawn) [Compound 13, tert-butyl ester of 4-{6-[(4-ethylphenyl)isobutylsulfamoyl]-4-hydroxy-3,4-dihydro-2H-quinolin-1-yl}piperidine-1-carboxylic acid], the pIC50 was under 6.00.

The molecule `CCc1ccc(N(CC(C)C)S(=O)(=O)c2ccc3c(c2)C(O)CCN3CC2(O)CCOCC2)cc1` (stereo not drawn) [Compound 16, 4-hydroxy-1-(4-hydroxytetrahydropyran-4-ylmethyl)-1,2,3,4-tetrahydroquinoline-6-sulfonic acid (4-ethylphenyl)isobutylamide] gave a pIC50 of under 6.00.

`CCc1ccc(N(CC(C)C)S(=O)(=O)c2ccc3c(c2)C(O)CCN3CC2CCS(=O)(=O)CC2)cc1` (stereo not drawn) [Compound 17, 1-(1,1-dioxohexahydro-1λ^6-thiopyran-4-ylmethyl)-4-hydroxy-1,2,3,4-tetrahydroquinoline-6-sulfonic acid (4-ethylphenyl)isobutylamide] showed a pIC50 of under 6.00.

`CCc1ccc(N(CC(C)C)S(=O)(=O)c2ccc3c(c2)C(O)CCN3CC2COC2)cc1` (stereo not drawn) [Compound 18, 4-hydroxy-1-oxetan-3-ylmethyl-1,2,3,4-tetrahydroquinoline-6-sulfonic acid (4-ethylphenyl)isobutylamide]: the negative-log IC50 (pIC50) is 6.00 to 7.00.

In turn, `CCc1ccc(N(CC(C)C)S(=O)(=O)c2ccc3c(c2)C(O)CCN3Cc2ccncn2)cc1` (stereo not drawn) [Compound 21, 4-hydroxy-1-pyrimidin-4-ylmethyl-1,2,3,4-tetrahydroquinoline-6-sulfonic acid (4-ethylphenyl)isobutylamide] showed a pIC50 of over 7.00.

Molecule `CCc1ccc(N(CC(C)C)S(=O)(=O)c2ccc3c(c2)C(O)CCN3CC2CCS(=O)(=O)C2)cc1` (stereo not drawn) [Compound 22, 1-(1,1-dioxotetrahydro-1λ^6-thiophen-3-ylmethyl)-4-hydroxy-1,2,3,4-tetrahydroquinoline-6-sulfonic acid (4-ethylphenyl)isobutylamide] showed a negative logarithm of the IC50 (pIC50) of 6.00 to 7.00.

For `CCc1ccc(N(CC(C)C)S(=O)(=O)c2ccc3c(c2)C(O)CCN3CC2CNC(=O)O2)cc1` (stereo not drawn) [Compound 23, 4-hydroxy-1-(2-oxooxazolidin-5-ylmethyl)-1,2,3,4-tetrahydroquinoline-6-sulfonic acid (4-ethylphenyl)isobutylamide], the negative-log IC50 (pIC50) is 6.00 to 7.00.

With `CCc1ccc(N(CC(C)C)S(=O)(=O)c2ccc3c(c2)C(O)CCN3CC2CCC(=O)NC2)cc1` (stereo not drawn) [Compound 24, 4-hydroxy-1-(6-oxopiperidin-3-ylmethyl)-1,2,3,4-tetrahydroquinoline-6-sulfonic acid (4-ethylphenyl)isobutylamide], the pIC50 was 6.00 to 7.00.

In turn, `CCc1ccc(N(CC(C)C)S(=O)(=O)c2ccc3c(c2)C(O)CCN3CC2CCNC(=O)C2)cc1` (stereo not drawn) [Compound 25, 4-hydroxy-1-(2-oxopiperidin-4-ylmethyl)-1,2,3,4-tetrahydroquinoline-6-sulfonic acid (4-ethylphenyl)isobutylamide] had a pIC50 of under 6.00.

In the case of `CCc1ccc(N(CC(C)C)S(=O)(=O)c2ccc3c(c2)C(O)CCN3CC2CNC(=O)C2)cc1` (stereo not drawn) [Compound 26, 4-hydroxy-1-(5-oxopyrrolidin-3-ylmethyl)-1,2,3,4-tetrahydroquinoline-6-sulfonic acid (4-ethylphenyl)isobutylamide], the pIC50 was 6.00 to 7.00.

`CCc1ccc(N(CC(C)C)S(=O)(=O)c2ccc3c(c2)C(O)CCN3C2CCS(=O)(=O)CC2)cc1` (stereo not drawn) [Compound 27, 1-(1,1-dioxohexahydro-1λ^6-thiopyran-4-yl)-4-hydroxy-1,2,3,4-tetrahydroquinoline-6-sulfonic acid (4-ethylphenyl)isobutylamide] had a pIC50 of 6.00 to 7.00.

With `CCc1ccc(N(CC(C)C)S(=O)(=O)c2ccc3c(c2)C(O)CCN3C2CCS(=O)(=O)C2)cc1` (stereo not drawn) [Compound 28, 1-(1,1-dioxotetrahydro-1λ^6-thiophen-3-yl)-4-hydroxy-1,2,3,4-tetrahydroquinoline-6-sulfonic acid (4-ethylphenyl)isobutylamide], the pIC50 was 6.00 to 7.00.
